“And” between values parts separate entries of the source, which are not always exact repeats. Identical values can stand only once. Like-named read-outs stand apart in the source and are kept apart here.
Columns and labels:
[1] = system: SARS-CoV-2-GFP in Vero E6 cells; assay: microbe, parasite or virus in culture; type: cell-based
[2] = target: T1, CatL (Homo sapiens, UniProt P07711, T223A); assay: NanoDSF, thermal stability of CatL; type: binding
T1 construct: made in house; host or cells: Komagataella pastoris strain GS115

[3] = target: SARS-CoV-2 Mpro (Severe acute respiratory syndrome coronavirus 2, UniProt P0DTD1); type: binding
[4] = target: T2, bovine serum albumin (Bos taurus, UniProt P02769); type: binding
T2 construct: purchased Merck, Germany

[5] = target: T1, CatL; assay: CatL inhibition assay (Ki), substrate Z-RR-AMC; type: biochemical
In short: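 Buffer: 50 mM sodium acetate pH 4.0, 50 mM NaCl, 0.1% PEG 6000, 5 mM DTT; epoxide inhibitors separately in 50 mM sodium phosphate pH 6.0 with same additives.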

[6] = system: CatL; conditions: Table S1, SI reference list; cited from earlier work
[7] = system: SARS-CoV-2 wild-type SA-WA1/2020; set-up: method as in PMID 32541865; conditions: Vero cells, read-out: half-maximal effective concentration; cited from earlier work
[8] = system: Vero cells; set-up: method as in PMID 32541865; conditions: another assay using Vero cells; cited from earlier work
[9] = in DMSO; compound supply and quality parameters, supplier named in Table S4; cited from earlier work
[10] = Cell viability assay (CellTiter-Blue); conditions: chlorocebus sabaeus

T1 sequence (P07711 114-333 T223A): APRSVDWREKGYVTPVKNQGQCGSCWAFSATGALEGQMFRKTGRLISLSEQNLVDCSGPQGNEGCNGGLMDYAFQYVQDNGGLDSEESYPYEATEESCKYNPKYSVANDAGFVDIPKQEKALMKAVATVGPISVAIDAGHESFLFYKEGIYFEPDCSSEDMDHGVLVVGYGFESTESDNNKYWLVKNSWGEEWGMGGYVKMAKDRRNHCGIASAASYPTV
T2 sequence (P02769 25-607): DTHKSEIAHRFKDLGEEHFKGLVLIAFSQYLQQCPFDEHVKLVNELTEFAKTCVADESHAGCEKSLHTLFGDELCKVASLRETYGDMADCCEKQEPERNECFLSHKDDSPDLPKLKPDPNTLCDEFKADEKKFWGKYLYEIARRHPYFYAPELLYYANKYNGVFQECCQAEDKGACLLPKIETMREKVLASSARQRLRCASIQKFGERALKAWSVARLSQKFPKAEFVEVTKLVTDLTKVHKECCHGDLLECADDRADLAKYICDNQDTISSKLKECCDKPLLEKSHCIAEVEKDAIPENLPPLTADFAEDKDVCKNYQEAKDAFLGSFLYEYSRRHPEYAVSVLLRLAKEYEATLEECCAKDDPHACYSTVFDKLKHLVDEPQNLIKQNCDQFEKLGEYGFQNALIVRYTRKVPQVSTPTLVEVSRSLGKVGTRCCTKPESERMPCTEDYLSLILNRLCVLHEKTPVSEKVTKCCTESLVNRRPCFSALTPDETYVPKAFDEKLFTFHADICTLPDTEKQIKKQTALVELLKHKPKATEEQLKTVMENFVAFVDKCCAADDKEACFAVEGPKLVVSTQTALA

## CCCC(NC(=O)C(CC(C)C)NC(=O)OCc1ccccc1)C(=O)C(=O)NCc1ccccn1 (stereo not shown) [CI-XII, Benzyl N-[1-[[1.2-dioxo-1-(pyridin-2-ylmethylamino)hexan-3-yl]amino]-4-methyl-1-oxopentan-2-yl]carbamate]
[1]; Severe acute respiratory syndrome coronavirus 2, Vero C1008, 24 h, read-out: EC50 (24 h)
  EC50: 6.4 nM
[1]; Severe acute respiratory syndrome coronavirus 2, Vero C1008, 24 h, read-out: EC50 (after 24 h)
  EC50: 6.37 nM
[1]; Severe acute respiratory syndrome coronavirus 2, Vero C1008, 48 h, read-out: EC50 (after 48 h)
  EC50: 146 nM
[1]; read-out: EC50 (24 h)
  EC50: < 10 nM
[2]
  2:1, Tm average (CatL): 81.6 °C
  20:1, Tm average (CatL): 81.3 °C
  ΔTm [K] for CatL, 2:1 ratio: 18.5 ± 0.4 K
[2]; pH 5
  ΔTm (for CatL), 2:1 compound to protein mixing ratio: 18,5 ± 0,4 °C and 18.5 °C
  ΔTm (for CatL), 20:1 compound to protein mixing ratio: 18,2 ± 0,2 °C and 18.2 °C
[3]; 2:1 compound to protein
  2:1, Tm average (Mpro): 66.7 °C
[3]; pH 7.5
  ΔTm (for Mpro), 2:1 compound to protein mixing ratio: 11,7 ± 1,7 °C and 11.7 °C
[4]
  Tm of bovine serum albumin in the presence of compound: 333.4 ± 0.8 K
[5]; CI-XII 0.055 uM
  Residual activity (Vi/V0): 0.9785 and 0.9376
[5]; CI-XII 0.091 uM
  Residual activity (Vi/V0): 0.9548 and 0.9431
[5]; CI-XII 0.152 uM
  Residual activity (Vi/V0): 0.9354 and 0.8807
[5]; CI-XII 0.254 uM
  Residual activity (Vi/V0): 0.873 and 0.9321
[5]; CI-XII 0.423 uM
  Residual activity (Vi/V0): 0.8656 and 0.8369
[5]; CI-XII 0.705 uM
  Residual activity (Vi/V0): 0.7709 and 0.7656
[5]; CI-XII 1.176 uM
  Residual activity (Vi/V0): 0.6641 and 0.6442
[5]; CI-XII 1.960 uM
  Residual activity (Vi/V0): 0.5112 and 0.4696
[5]; CI-XII 3.266 uM
  Residual activity (Vi/V0): 0.3345 and 0.322
[5]; CI-XII 5.443 uM
  Residual activity (Vi/V0): 0.1956 and 0.1842
[5]; CI-XII 9.072 uM
  Residual activity (Vi/V0): 0.1094 and 0.09936
[5]; CI-XII 15.120 uM
  Residual activity (Vi/V0): 0.06322 and 0.05321
[5]; CI-XII 25.200 uM
  Residual activity (Vi/V0): 0.03696 and 0.03366
[5]; CI-XII 42.000 uM
  Residual activity (Vi/V0): 0.01939 and 0.02113
[5]; CI-XII 70.000 uM
  Residual activity (Vi/V0): 0.01108 and 0.01542
[5]; CatL Ki relative to 13b
  fold lower Ki than 13b: ~500 fold
[5]; Ki, CatL, Z-RR-AMC, pH 4.0, 37 °C
  Ki: 0.64 nM
[5]; read-out: Residual activity (Vi/V0), CI-XII 0.055 uM
  remaining activity at 0.055 µM: 101%
[5]; read-out: Residual activity (Vi/V0), CI-XII 0.091 uM
  remaining activity at 0.091 µM: 100%
[5]; read-out: Residual activity (Vi/V0), CI-XII 0.152 uM
  remaining activity at 0.152 µM: 102%
[5]; read-out: Residual activity (Vi/V0), CI-XII 0.254 uM
  remaining activity at 0.254 µM: 94.7%
[5]; read-out: Residual activity (Vi/V0), CI-XII 0.423 uM
  remaining activity at 0.423 µM: 84.5%
[5]; read-out: Residual activity (Vi/V0), CI-XII 0.705 uM
  remaining activity at 0.705 µM: 75%
[5]; read-out: Residual activity (Vi/V0), CI-XII 1.176 uM
  remaining activity at 1.176 µM: 65.7%
[5]; read-out: Residual activity (Vi/V0), CI-XII 1.960 uM
  remaining activity at 1.96 µM: 52.2%
[5]; read-out: Residual activity (Vi/V0), CI-XII 3.266 uM
  remaining activity at 3.266 µM: 34.9%
[5]; read-out: Residual activity (Vi/V0), CI-XII 5.443 uM
  remaining activity at 5.443 µM: 17.4%
[5]; read-out: Residual activity (Vi/V0), CI-XII 9.072 uM
  remaining activity at 9.072 µM: 9.65%
[5]; read-out: Residual activity (Vi/V0), CI-XII 15.120 uM
  remaining activity at 15.12 µM: 5.77%
[5]; read-out: Residual activity (Vi/V0), CI-XII 25.200 uM
  remaining activity at 25.2 µM: 3.2%
[5]; read-out: Residual activity (Vi/V0), CI-XII 42.000 uM
  remaining activity at 42 µM: 1.92%
[5]; read-out: Residual activity (Vi/V0), CI-XII 70.000 uM
  remaining activity at 70 µM: 1.07%
[6]
  IC50: 1.6 nM
[7]
  EC50: < 1000 nM
[8]
  CC50: > 50000 nM
[9]
  Solvent (max. solubility): 16 mg/mL
[10]
  CC50 at 48 h: > 10000 nM

From PMC11089505, “Structural Elucidation and Antiviral Activity of Covalent Cathepsin L Inhibitors” (Journal of Medicinal Chemistry, 2024)
